Each structure is given as a SMILES string. “And” between values parts separate entries of the source, which are not always exact repeats. Equal entries are not always repeated. Starred links: 1 amine or outer side, 2 acyl side, 3 side chain; linkers in the order of their positions; H or OH if unused. Positions of bridges follow the written chain, without caps; N, C: chain ends. Non-standard residues stand in square brackets, D forms with d. Residues, ends and D or L forms follow the SMILES beside them. Chains are numbered I, II in the order given. Actinocin(9to1) = Cc1c2oc3c(C)ccc(C(=O)[*:1])c3nc-2c(C(=O)[*:2])c(N)c1=O; aThr = C[C@H](O)[C@H](N)C(=O)O; NMeV = CN[C@H](C(=O)O)C(C)C; Sar = CNCC(=O)O

The test system of the experiment is C57BL/6 mice, Adenocarcinoma 755 sc, tumor weight T/C. Kind of experiment: NCI In Vivo Anticancer Drug Screen. Data for tumor model Adenocarcinoma 755 (subcutaneous) in C57BL/6 mice. Conditions: endpoint: mean tumor weight, higher = larger tumour. How it is done: The antitumor activity of compounds was measured in mice bearing transplantable tumors. Survival or tumor size were measured and the results are expressed as the measurement made in the treated group (T) divided by the measurement made in the vehicle treated control group (C). The tumor model used in this assay is Adenocarcinoma 755 (subcutaneous) in C57BL/6 mice

The mark [1] stands for this setting: dose: 75.0 mg/kg/injection, schedule: Q01DX011 (ip), vehicle: saline.
Where [2] appears, read: dose: 25.0 mg/kg/injection, schedule: Q01DX011 (ip), vehicle: saline.
[3] abbreviates: dose: 30.0 mg/kg/injection, schedule: Q01DX011 (ip), vehicle: saline.
Where [4] appears, read: dose: 40.0 mg/kg/injection, schedule: Q01DX011 (ip), vehicle: saline.
Where [5] appears, read: dose: 100.0 mg/kg/injection, schedule: Q01DX011 (ip), vehicle: saline.
Setting [6] is: dose: 200.0 mg/kg/injection, schedule: Q01DX011 (ip), vehicle: saline.
Setting [7] is: dose: 50.0 mg/kg/injection, schedule: Q01DX011 (ip), vehicle: saline.

The term T/C denotes the ratio of treated to control. In the case of `Nc1nc2n[nH]nc2c(=O)[nH]1`, the T/C reads like this: (dose: 37.5 mg/kg/injection, schedule: Q01DX007 (sc), vehicle: carboxymethylcellulose (CMC)) 51 % of control and 66 % of control; (dose: 37.5 mg/kg/injection, schedule: Q01DX011 (ip), vehicle: saline) 10 % of control; (dose: 37.5 mg/kg/injection, schedule: Q01DX011 (sc), vehicle: saline) 25 % of control; (dose: 50.0 mg/kg/injection, schedule: Q01DX011 (sc), vehicle: saline) 16 % of control; (dose: 50.0 mg/kg/injection, schedule: Q02DX006 (ip), vehicle: other) 57 % of control; (dose: 60.0 mg/kg/injection, schedule: Q02DX006 (ip), vehicle: other) 64 % of control. Further, the T/C under setting [1] was 6 % of control; the T/C (dose: 75.0 mg/kg/injection, schedule: Q01DX011 (sc), vehicle: saline) is 4 % of control; the T/C (dose: 100.0 mg/kg/injection, schedule: Q01DX007 (sc), vehicle: carboxymethylcellulose (CMC)) is 5 % of control and 14 % of control.
For the compound `CN1CC(=O)NC1=O`, the T/C (dose: 250.0 mg/kg/injection, schedule: Q01DX011 (ip), vehicle: saline) is 49 % of control; the T/C (dose: 500.0 mg/kg/injection, schedule: Q01DX011 (ip), vehicle: saline) was 68 % of control; the T/C (dose: 1000.0 mg/kg/injection, schedule: Q01DX011 (ip), vehicle: saline) is 41 % of control; the T/C (dose: 2000.0 mg/kg/injection, schedule: Q01DX011 (ip), vehicle: saline) is 70 % of control.
Turning to `N/C(=N/N=C/c1ccccc1[N+](=O)[O-])N[N+](=O)[O-]`, the T/C (dose: 150.0 mg/kg/injection, schedule: Q02DX006 (ip), vehicle: saline) is 95 % of control and the T/C (dose: 200.0 mg/kg/injection, schedule: Q02DX006 (ip), vehicle: saline) is 76 % of control.
For the compound `c1ccc(CNc2ncnc3[nH]ncc23)cc1`, the T/C reads like this: under setting [2], 27 % of control; under setting [3], 25 % of control; under setting [4], 4 % of control.
With `Clc1ccccc1CSc1ncnc2nc[nH]c12`, the T/C under setting [1] was 13 % of control; the T/C under setting [5] was 5 % of control; the T/C (dose: 150.0 mg/kg/injection, schedule: Q01DX011 (ip), vehicle: saline) is 1 % of control; the T/C under setting [6] is 13 % of control.
On to `S=c1[nH]c(=S)c2[nH]cnc2[nH]1`, for which the T/C under setting [5] is 13 % of control and the T/C under setting [6] was 7 % of control.
With `O=C1C(NC(=O)C2CCCCC2)=C(N2CC2)C(=O)C(NC(=O)C2CCCCC2)=C1N1CC1`, the T/C runs as follows: (dose: 16.0 mg/kg/injection, schedule: Q01DX009 (ip), vehicle: saline) 97 % of control; (dose: 32.0 mg/kg/injection, schedule: Q01DX009 (ip), vehicle: saline) 56 % of control; (dose: 64.0 mg/kg/injection, schedule: Q01DX009 (ip), vehicle: saline) 83 % of control.
With `Cc1c2oc3c(C)ccc(C(=O)N[C@@H]4C(=O)N[C@H](C(C)C)C(=O)N5CCC[C@H]5C(=O)N(C)CC(=O)N(C)[C@@H](C(C)C)C(=O)O[C@H]4C)c3nc-2c(C(=O)N[C@@H]2C(=O)N[C@H](C(C)C)C(=O)N3CCC[C@H]3C(=O)N(C)CC(=O)N(C)[C@@H](C(C)C)C(=O)O[C@H]2C)c(N)c1=O` (I: [aThr][dV]P[Sar][NMeV] / II: [aThr][dV]P[Sar][NMeV]; ester I:1-I:C, II:1-II:C; linker I:N-II:N via Actinocin(9to1)), the T/C (dose: 0.03 mg/kg/injection, schedule: Q01DX011 (ip), vehicle: saline) was 3 % of control.
For the compound `O=c1[nH]cc(S)c(=O)[nH]1`, the T/C is, setting by setting: (dose: 100.0 mg/kg/injection, schedule: Q02DX006 (ip), vehicle: other) 86 % of control; (dose: 125.0 mg/kg/injection, schedule: Q02DX006 (ip), vehicle: other) 76 % of control.
Take `Nc1nc(=O)[nH]c2n[nH]nc12`: the T/C (dose: 5.0 mg/kg/injection, schedule: Q01DX011 (ip), vehicle: carboxymethylcellulose (CMC)) was 82 % of control; the T/C (dose: 10.0 mg/kg/injection, schedule: Q01DX011 (ip), vehicle: carboxymethylcellulose (CMC)) was 79 % of control; the T/C (dose: 25.0 mg/kg/injection, schedule: Q01DX011 (ip), vehicle: carboxymethylcellulose (CMC)) was 64 % of control.
In the case of `Nc1[nH]c(=O)nc2c1ncn2C1OC(CO)C(O)C1O` (configuration not stated), the T/C reads like this: (dose: 20.0 mg/kg/injection, schedule: Q01DX011 (ip), vehicle: saline) 100 % of control; under setting [3], 42 % of control; under setting [4], 58 % of control.
In the case of `CCn1cnc2c(Cl)ncnc21`, the T/C reads like this: under setting [2], 29 % of control; under setting [7], 10 % of control; under setting [5], 1 % of control.
With `O=C(O)CCCCC1NC(=O)CS1` (configuration not stated), the T/C is, setting by setting: (dose: 225.0 mg/kg/injection, schedule: Q02DX006 (ip), vehicle: water) 91 % of control; (dose: 275.0 mg/kg/injection, schedule: Q02DX006 (ip), vehicle: water) 101 % of control.
As to `CCc1nc(N)nc(N)c1-c1ccc(Cl)cc1`, the T/C under setting [7] was 67 % of control.

(Values after PubChem BioAssay AID218 (DTP/NCI, 2004).)
